Assay results as given in US7718781B2, “Hydroxypyridonate and hydroxypyrimidinone chelating agents” (The Regents of the University of California, priority 2001, dated 2010).

Key:
[1] = Variable temperature 17O NMR of water transverse relaxation rate (water exchange, q); type: physicochemical
Procedure: The mean residence water lifetime, τm, is generally determined by measuring the transverse ^17O NMR relaxation rate (R2p) at various temperatures. The variable-temperature ^17O NMR measurement is performed using spectrometers which operate at various magnetic field strengths (2.1 and 9.4 T are typically used) equipped with a 5 mm probe. A D2O external lock and solutions containing 2.6% of the ^17O isotope are used. The observed transverse relaxation rates are calculated from the signal width at half-height. […]
A variable temperature ^17O NMR study of the transverse relaxation rate of H2^17O (R2p) of Gd-TREN-1-Me-3,2-HOPO-TAM, Gd-TREN-1-Me-3,2-HOPO-TAM-PEG-2000 and Gd-TREN-1-Me-3,2-HOPO-TAM-PEG-5000 at 2.1 T was carried out. Analysis of the profiles also allows the number of coordinated water molecules, q to be evaluated. […]
The value of τm, was independently obtained by a variable temperature (VT) ^17O NMR measurement of the water nuclear transverse relaxation rate (R2). The data were measured at 2.1 T (90 MHz for the proton and 12 MHz for 170) and pH≈7. The curve was analyzed in terms of the well established equations of Swift-Connick, rearranged in a form suitable for Gd. […]
Variable-temperature ^17O NMR measurements were recorded on a JEOL EX-400 (9.4 T) spectrometer, equipped with a 5 mm probe, by using D20 for external lock of the magnetic field. […]

[2] = target: human serum albumin (HSA) (Homo sapiens, UniProt P02768); assay: Binding to HSA by proton relaxation enhancement (PRE) method
Text: Biomolecule affinity measurements are generally measured by art-recognized methods. For example, the non-covalent interaction between HSA and the metal complexes containing hydrophobic groups have been thoroughly investigated using the well-established proton relaxation enhancement (PRE) method (Caravan, P. E. et al., Chem. Rev. 1999, 99, 2293) that allows both the binding parameters (Ka) and the relaxivity enhancement of the (Metal complex)-HSA adduct to be determined. In this method, the water proton relaxation rates of solutions containing the metal complex and increasing concentrations of the serum protein are measured. […]
The longitudinal relaxation rate (R1) of water protons in a […] solution of Gd-TREN-1-Me-3,2-HOPO-TAM-PEG-5000 was measured with increasing concentrations of HSA (FIG. 19) at 20 MHz and 25° C. […]
An objective of synthesizing the Bn and MOB chelates was to investigate their interaction with HSA. The non-covalent interaction between HSA and the Gd complexes was investigated using the well-established proton relaxation enhancement (PRE) method that allows both the binding parameters (KA) and the relaxivity enhancement of the (Gd^3+ complex)-HSA adduct to be determined. In this method, the water proton longitudinal relaxation rates (R1) of solutions containing the Gd complex and increasing concentrations of the serum protein are measured.

[3] = Water proton relaxivity (longitudinal relaxation rate, 20 MHz); type: physicochemical
Procedure: The efficacy of a paramagnetic complex as a possible MRI contrast agent depends on its ability to catalyze the nuclear magnetic relaxation rate of solvent protons (Lauffer, R. B., Chem. Rev., 87, 901 (1987); Tweedle, M. F.; Kumar, K. In Magnetic Resonance Imaging (MRI) Contrast Agents; Clarke, M. I., Sadler, P. J., Eds.; Springer: Berlin, Germany, Vol. 2, p. 1 (1999); Koenig et al., Prog. NMR Spectrosc., 22:487 (1990)). This property, which is measured in terms in relaxivity, r1p, is defined as the enhancement of the water proton longitudinal relaxation rate induced by a 1 mML^−1 solution of the paramagnetic compound at a given temperature and magnetic field strength (Aime et al., Chem. Soc. Rev., 27:19 (1998)).
In an exemplary assay, the longitudinal water proton relaxation rate at 20 MHz are measured (typically with a NMR spectrometer operating at 0.5 T) with a reproducibility of the T1 data to ±0.5%. Equipment for the control of temperature (with an accuracy of ±0.1° C.) during these measurements are employed.
Water proton relaxation measurements were carried out at 20 MHz with a Stelar Spinmaster Spectrometer (Mede, Pv, Italy) on 0.5-2 mM solutions of the Gd(III) complex. Spin-lattice relaxation times T1 were measured by the standard inversion recovery method with typical 90° pulse width of […], 16 experiments of 4 scans. The reproducibility of the data is ±1%. The temperature was controlled by a Stelar VTC-91 air-flow heater equipped with copper-constantan thermocouple (uncertainty ±0.1° C). The 1/T1 nuclear magnetic relaxation dispersion (NMRD) profiles of water protons were measured from 0.00024 to 1.2 T (corresponding to the range 0.01-50 MHz of proton Larmor frequencies) at 15, 25 and 39° C. using 1.5 mM solutions of the complex on the field-cycling Koenig-Brown relaxometer of the University of Torino (Italy). The temperature was controlled by circulating freon from an external bath and measured by a thermometer inserted into the freon close to the sample. The reproducibilities of the measured T1 values were estimated to be ±2%. […]

human serum albumin (HSA), sequence (P02768 25-609): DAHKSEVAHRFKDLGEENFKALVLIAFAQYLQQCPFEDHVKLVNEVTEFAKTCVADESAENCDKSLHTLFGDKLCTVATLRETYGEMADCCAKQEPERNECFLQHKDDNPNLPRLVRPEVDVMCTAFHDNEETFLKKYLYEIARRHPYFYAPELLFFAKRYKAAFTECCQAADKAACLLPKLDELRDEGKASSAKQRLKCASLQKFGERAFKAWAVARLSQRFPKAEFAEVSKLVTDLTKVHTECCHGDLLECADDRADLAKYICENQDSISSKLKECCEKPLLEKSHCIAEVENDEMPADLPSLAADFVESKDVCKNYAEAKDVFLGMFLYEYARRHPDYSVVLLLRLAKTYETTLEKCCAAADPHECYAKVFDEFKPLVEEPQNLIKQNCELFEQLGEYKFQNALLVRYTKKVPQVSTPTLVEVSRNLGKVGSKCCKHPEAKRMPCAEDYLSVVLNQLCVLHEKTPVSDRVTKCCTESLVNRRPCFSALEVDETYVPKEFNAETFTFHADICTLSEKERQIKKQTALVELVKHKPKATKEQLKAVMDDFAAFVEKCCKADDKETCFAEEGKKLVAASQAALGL

With `O=C([O-])CN(CCN(CC(=O)[O-])CC(=O)O)CCN(CC(=O)[O-])CC(=O)O.[Gd+3]` [Gd-DTPA] the τM/ns [1] was 303 ns, the “KA (HSA)/M^−1” value ([2]; HSA) was under 100 M⁻¹ and the “r1p^b/mM^−1s^−1 (HSA)” value ([2]; relaxivity of HSA-bound complex) was 4.3 mM⁻¹ s⁻¹. For the same compound, the “r1p/mM^−1s^−1 (20 MHz)” value [3] was 4.3 mM⁻¹ s⁻¹.
